From ChEMBL document CHEMBL1201862, “PubChem BioAssay data set” (2004) come the findings set out here.

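1) Cells in 96-well plates. 2) Compound, 48 h, 5 concentrations. 3) Linear interpolation between surrounding doses. 4) Unreached endpoint = highest concentration. GI50 marks 50% less growth.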 Active and inactive are the calls of the source. Cut-off read from the data, not from the text of the source: active = GI50 up to about 1.1 µM and inactive = higher.

Among the test systems are HCT-15; NCI-H226; MDA-N; NCI/ADR-RES; CCRF-CEM; SW-620; NCI-H460; SF-295; MOLT-4; EKVX; OVCAR-4; A498; MDA-MB-231; SF-539; HOP-62; MCF7; LOX IMVI; HL-60; RXF 393; OVCAR-8.
Holding throughout (test): growth of human tumour cells (NCI), 48 h

For `COc1cc(/C=C/c2sc3ccccc3[n+]2C)ccc1N(C)C`, the GI50 was 37.2 µM with HCT-15; 22.4 µM (inactive) in the experiment with NCI-H226; 2.48 µM (inactive) in the experiment with MDA-N; > 10 µM (inactive) with NCI/ADR-RES; 2.06 µM (inactive) with CCRF-CEM; 5.07 µM (inactive) with SW-620. The GI50 in the experiment on NCI-H460 was 6.11 µM (inactive); with SF-295, 47.4 µM (inactive); with MOLT-4, 4.55 µM (inactive); in the experiment on EKVX, 21.8 µM (inactive); in the experiment with OVCAR-4, 1.33 µM (inactive); in the experiment with A498 it was 44 µM (inactive). Further, the GI50 in the experiment on MDA-MB-231 was 6.14 µM (inactive); in the experiment on SF-539, 17.3 µM (inactive); with HOP-62, 17.9 µM (inactive); with MCF7 it was 4.45 µM (inactive); with LOX IMVI, 15.8 µM (inactive); in the experiment on HL-60, 6.85 µM (inactive). The GI50 in the experiment on RXF 393 was 16.6 µM (inactive); in the experiment on OVCAR-8, 2.93 µM (inactive).
Consider `O=[N+]([O-])c1cc2no[n+]([O-])c2cc1N1CCCCC1`, for which the GI50 with HCT-15 is 3.21 µM; in the experiment with NCI-H226, 39.8 µM (inactive); with MDA-N, 2.59 µM (inactive); with NCI/ADR-RES it was 3.15 µM (inactive); in the experiment with CCRF-CEM, 0.38 µM (active); in the experiment on SW-620 it was 1.97 µM (inactive). Also, the GI50 was 15.6 µM (inactive) in the experiment on NCI-H460; 17.4 µM (inactive) with SF-295; 1.06 µM (active) with MOLT-4; 2.58 µM (inactive) in the experiment on EKVX; 2.25 µM (inactive) with OVCAR-4; 17.9 µM (inactive) in the experiment on A498. The GI50 in the experiment on MDA-MB-231 was 8.47 µM (inactive); in the experiment with SF-539 it was 2.39 µM (inactive); with HOP-62 it was 4.34 µM (inactive); with MCF7, 1.95 µM (inactive); in the experiment on LOX IMVI it was 1.79 µM (inactive); in the experiment on HL-60 it was 1.5 µM (inactive). Also, the results for the GI50 with RXF 393 and in the experiment on OVCAR-8 were 1.51 µM (inactive) and 1.95 µM (inactive), respectively.
As to `N#Cc1ccc(/N=N/N2CCCC2)cc1`, the GI50 is more than 100 µM in the experiment with HCT-15; > 100 µM (inactive) with NCI-H226; > 100 µM (inactive) with MDA-N; > 100 µM (inactive) with NCI/ADR-RES; 43.7 µM (inactive) with CCRF-CEM; > 100 µM (inactive) with SW-620. Also, the GI50 was > 100 µM (inactive) in the experiment on NCI-H460; > 100 µM (inactive) with SF-295; 61.2 µM (inactive) in the experiment with MOLT-4; 63.8 µM (inactive) in the experiment on EKVX; 98.9 µM (inactive) in the experiment on OVCAR-4; 96.8 µM (inactive) with A498. For the same molecule, the GI50 in the experiment with MDA-MB-231 was > 100 µM (inactive); in the experiment on SF-539, > 100 µM (inactive); in the experiment on HOP-62 it was > 100 µM (inactive); with MCF7, > 100 µM (inactive); in the experiment with LOX IMVI, > 100 µM (inactive); in the experiment on HL-60 it was 91.2 µM (inactive). Also, the GI50 in the experiment with RXF 393 and in the experiment on OVCAR-8 was > 100 µM (inactive) each time.
Consider `Cc1cc(C)cc(Nc2cc(O)nc(O)n2)c1`, for which the GI50 is more than 100 µM with HCT-15; 58.3 µM (inactive) in the experiment with NCI-H226; > 100 µM (inactive) in the experiment on MDA-N; > 100 µM (inactive) with NCI/ADR-RES; > 100 µM (inactive) with CCRF-CEM; > 100 µM (inactive) with SW-620. The GI50 in the experiment on NCI-H460, in the experiment on SF-295, in the experiment on MOLT-4, in the experiment with EKVX, in the experiment on OVCAR-4 and in the experiment on A498 was > 100 µM (inactive) throughout. Further, the GI50 in the experiment on MDA-MB-231, in the experiment on SF-539, in the experiment with HOP-62, in the experiment on MCF7, with LOX IMVI and in the experiment with HL-60 was > 100 µM (inactive) each time. Further, the GI50 in the experiment with RXF 393 is 90.4 µM (inactive); with OVCAR-8 it was > 100 µM (inactive).
Regarding `COc1cc2c3c(c1)CCCN3CCC2`, the GI50 is more than 10 µM in the experiment on HCT-15; > 10 µM (inactive) with NCI-H226; > 10 µM (inactive) in the experiment with MDA-N; > 10 µM (inactive) in the experiment on NCI/ADR-RES; > 10 µM (inactive) in the experiment on CCRF-CEM; > 10 µM (inactive) with SW-620. Moreover, the GI50 in the experiment with NCI-H460, with SF-295, in the experiment on MOLT-4, with EKVX, in the experiment on OVCAR-4 and in the experiment on A498 was > 10 µM (inactive) each time. Besides, the GI50 with MDA-MB-231, in the experiment with SF-539, in the experiment on HOP-62, in the experiment on MCF7, in the experiment on LOX IMVI and in the experiment on HL-60 was > 10 µM (inactive) in each case. Besides, the GI50 in the experiment on RXF 393 and with OVCAR-8 was > 10 µM (inactive) in each case.
Take `CN(Cc1cc(C(C)(C)C)cc(Br)c1O)Cc1cc(C(C)(C)C)cc(Br)c1O`: the GI50 was 3.12 µM in the experiment with HCT-15; 4.18 µM (inactive) in the experiment with NCI-H226; 4.5 µM (inactive) with MDA-N; 3.03 µM (inactive) in the experiment on NCI/ADR-RES; 2.7 µM (inactive) in the experiment with CCRF-CEM; 3.48 µM (inactive) in the experiment with SW-620. The GI50 was 1.87 µM (inactive) with NCI-H460; 4.02 µM (inactive) in the experiment on SF-295; 3.21 µM (inactive) in the experiment on MOLT-4; 3.83 µM (inactive) with EKVX; 5.08 µM (inactive) with OVCAR-4; 2.75 µM (inactive) in the experiment with A498. Besides, the GI50 was 2.15 µM (inactive) in the experiment on MDA-MB-231; 2.74 µM (inactive) in the experiment with SF-539; 4.08 µM (inactive) in the experiment with HOP-62; 1.56 µM (inactive) in the experiment with MCF7; 3.77 µM (inactive) in the experiment with LOX IMVI; 4.2 µM (inactive) in the experiment on HL-60. The values for the GI50 in the experiment with RXF 393 and in the experiment with OVCAR-8 were 2.21 µM (inactive) and 4.33 µM (inactive), respectively.
As to `CC(C)c1cc2c(cc1S(=O)(=O)O)[C@@]1(C)CCC[C@@](C)(C(=O)O)C1CC2` (stereo not given in full), the GI50 in the experiment on HCT-15 was more than 100 µM; in the experiment with NCI-H226 it was > 100 µM (inactive); in the experiment with MDA-N it was > 100 µM (inactive); with NCI/ADR-RES, > 100 µM (inactive); with CCRF-CEM, > 100 µM (inactive); with SW-620, > 100 µM (inactive). The GI50 in the experiment on NCI-H460, in the experiment on SF-295, in the experiment on MOLT-4, with EKVX, with OVCAR-4 and in the experiment with A498 was > 100 µM (inactive) in each case. For the same molecule, the GI50 with MDA-MB-231, in the experiment with SF-539, in the experiment with HOP-62, in the experiment with MCF7, in the experiment with LOX IMVI and with HL-60 was > 100 µM (inactive) in each case. In addition, the GI50 in the experiment on RXF 393 and in the experiment on OVCAR-8 was > 100 µM (inactive) each time.
As for `C=C1C(=O)OC2C1C(OC(=O)/C(C)=C/C)CC1(C)C(=O)CCC(=C)C21` (stereo not given), the GI50 in the experiment on HCT-15 is 3.15 µM; with NCI-H226 it was 20.7 µM (inactive); in the experiment with MDA-N, 5.07 µM (inactive); in the experiment with NCI/ADR-RES, 6.89 µM (inactive); with CCRF-CEM, 2.3 µM (inactive); with SW-620, 2.93 µM (inactive). Further, the GI50 is 13.3 µM (inactive) in the experiment on NCI-H460; 18.5 µM (inactive) with SF-295; 2.77 µM (inactive) in the experiment with MOLT-4; 16.3 µM (inactive) in the experiment on EKVX; 11 µM (inactive) in the experiment on OVCAR-4; 13.8 µM (inactive) with A498. The GI50 with MDA-MB-231 was 17.9 µM (inactive); in the experiment with SF-539, 11.3 µM (inactive); in the experiment with HOP-62, 16.9 µM (inactive); in the experiment on MCF7 it was 4.49 µM (inactive); in the experiment on LOX IMVI it was 3.94 µM (inactive); with HL-60 it was 1.89 µM (inactive). Moreover, the GI50 was 2.83 µM (inactive) in the experiment on RXF 393 and 12.1 µM (inactive) in the experiment with OVCAR-8.
For the molecule `O=C1N/C(=N/N=C/C(O)C(O)C(O)C(O)CO)N/C1=C\c1ccco1` (stereo not given), the GI50 was more than 100 µM in the experiment on HCT-15; > 100 µM (inactive) in the experiment on NCI-H226; > 100 µM (inactive) in the experiment with MDA-N; > 100 µM (inactive) with NCI/ADR-RES; 48.4 µM (inactive) in the experiment on CCRF-CEM; > 100 µM (inactive) with SW-620. Further, the GI50 with NCI-H460, with SF-295, in the experiment on MOLT-4, in the experiment with EKVX, with OVCAR-4 and in the experiment on A498 was > 100 µM (inactive) in each case. The GI50 with MDA-MB-231, in the experiment with SF-539, in the experiment with HOP-62, in the experiment on MCF7, in the experiment on LOX IMVI and in the experiment with HL-60 was > 100 µM (inactive) each time. The GI50 in the experiment with RXF 393 and in the experiment with OVCAR-8 was > 100 µM (inactive) in each case.
Consider `Nc1ccccc1N/C=C\C(=O)C(Cl)(Cl)Cl`, for which the GI50 is 19 µM in the experiment with HCT-15; 82.6 µM (inactive) in the experiment on NCI-H226; 16.6 µM (inactive) with MDA-N; 31 µM (inactive) in the experiment on NCI/ADR-RES; 4.26 µM (inactive) in the experiment on CCRF-CEM; 16.7 µM (inactive) in the experiment with SW-620. The GI50 with NCI-H460 is 31.3 µM (inactive); with SF-295, 23.4 µM (inactive); in the experiment on MOLT-4, 11 µM (inactive); in the experiment on EKVX it was 15 µM (inactive); in the experiment on OVCAR-4, 19.5 µM (inactive); in the experiment with A498 it was 18.8 µM (inactive). Also, the GI50 with MDA-MB-231 is 47.1 µM (inactive); in the experiment with SF-539, 28.4 µM (inactive); with HOP-62, 19.3 µM (inactive); with MCF7, 14.5 µM (inactive); in the experiment with LOX IMVI it was 15.9 µM (inactive); with HL-60, 22.3 µM (inactive). In addition, the GI50 with RXF 393 is 20.1 µM (inactive); in the experiment with OVCAR-8, 29 µM (inactive).
